Measured values as given in patent publication US20160115167A1, “BMP INHIBITORS AND METHODS OF USE THEREOF” (THE BRIGHAM AND WOMEN'S HOSPITAL, INC., priority 2013, published 2016).

System: BMP7 induced pSMAD1/5/8 in BMPR2−/− and TGF-β1 induced pSMAD2
Assay: Western blot, BMP7 vs TGF-beta induced pSMAD in PASMCs
Type: cell-based, mice
Settings: versus LDN-193189; BMPR2-deficient and wild type PASMCs; FIGS. 5b and 5c
Experimental: C2C12 […] cells stably transfected with BMP responsive element from the Idl promoter fused to luciferase reporter gene (BRE-Luc) and human embryonic kidney 293T cells stably transfected with the TGF-β responsive element from the PAI-1 promoter fused to luciferase reporter gene (CAGA-Luc) were cultured in DMEM (Life Technologies) supplemented with 10% FBS, L-glutamine, and pen/strep at 37° C. and 10% CO2. HepG2 human hepatoma cells (ATCC) were cultured in EMEM (Life Technologies) supplemented with 10% FBS, L-glutamine, and pen/strep at 37° C. and 10% CO2. C2C12 […] (ATCC) were cultured in DMEM (Life Technologies) supplemented with 10% FBS, L-glutamine, and pen/strep at 37° C. and 10% CO2. […]
Both WT and BMPR2^del/del PASMCs were seeded in 12-well plates (Falcon®; BD Biosciences) at 75% confluency (˜375,000 cells in 480 μL per well). […] The phosphorylation state of downstream effector proteins (pSMAD1/5/8 and pSMAD2 for BMP and TGF-β respectively) was measured by western blotting performed 30 minutes after ligand stimulation. Western blots were analyzed using ImageJ with positive controls at 100% ligand induced phospho-SMAD and negative controls being subtracted as background. […]

c1cc(-c2cnn3cc(-c4ccc(N5CCNCC5)cc4)cnc23)c2cccnc2c1 [LDN-212854]
selectivity, BMP7 induced pSMAD1/5/8 versus TGF-β1 induced pSMAD2: improved selectivity
